In PubChem BioAssay (NCI) one finds TGI and GI50 data, which are given here for 18 compounds.

Among the test systems are UACC-62 melanoma; HCT-116 colon; HCT-15 colon; OVCAR-8 ovarian; SN12C renal; MOLT-4 leukemia; SF-295 CNS; NCI-H226 lung; MDA-MB-231 breast; DU-145 prostate.
Assay in all cases: growth of human tumour cells (NCI), 48 h

Structures are written as SMILES.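 Compound exposure: 48 hours, 5 concentrations, 96-well plates. Here, GI50 denotes the concentration required for 50% inhibition of growth. TGI marks complete inhibition of growth.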

As for `Cc1cccc2c1C(=O)OC2(c1cccc2ccccc12)c1cccc2ccccc12`, the TGI in the assay with UACC-62 melanoma, in the assay with HCT-116 colon, in the assay on HCT-15 colon, in the assay on OVCAR-8 ovarian, in the assay with SN12C renal and with MOLT-4 leukemia was greater than 100 µM in each case. Besides, the TGI in the assay with SF-295 CNS and with NCI-H226 lung was greater than 100 µM throughout.

On to `Cc1ccc(S(=O)(=O)N/N=C/CN2C(=O)c3ccccc3C2=O)cc1`, for which the TGI with UACC-62 melanoma, in the assay with HCT-116 colon, in the assay on HCT-15 colon, in the assay on OVCAR-8 ovarian, in the assay with SN12C renal and with MOLT-4 leukemia was greater than 100 µM in each case. The TGI with SF-295 CNS and in the assay on NCI-H226 lung was greater than 100 µM each time.

`CCc1cc2c(c3[nH]ccc13)[C@@H](C)C[C@H]2C`: the TGI with UACC-62 melanoma worked out at 32 µM; in the assay on HCT-116 colon it was 30.1 µM; with HCT-15 colon, 30.9 µM; in the assay with OVCAR-8 ovarian, 41.1 µM; in the assay with SN12C renal, 29.8 µM; in the assay on MOLT-4 leukemia, 38.2 µM. For the same compound, the TGI amounted to 35.2 µM in the assay on SF-295 CNS and 31.8 µM in the assay on NCI-H226 lung.

`O=C1NC(=Nc2ccccc2Cl)SC1C(=O)Nc1ccc([N+](=O)[O-])cc1[N+](=O)[O-]` (stereo unspecified): the TGI in the assay with UACC-62 melanoma, in the assay on HCT-116 colon, in the assay with HCT-15 colon, in the assay on OVCAR-8 ovarian, with SN12C renal and with MOLT-4 leukemia was greater than 100 µM in each case. Moreover, the TGI in the assay on SF-295 CNS and with NCI-H226 lung was greater than 100 µM each time.

`COC(=O)C([O][Ge]([CH3])([CH3])[CH3])c1ccccc1` (stereo unspecified): the GI50 with UACC-62 melanoma, with HCT-116 colon, in the assay with HCT-15 colon, in the assay with OVCAR-8 ovarian, in the assay with SN12C renal and with MOLT-4 leukemia was greater than 100 µM throughout. Moreover, the GI50 in the assay on SF-295 CNS and in the assay with NCI-H226 lung was greater than 100 µM throughout. In addition, the TGI with UACC-62 melanoma, in the assay on HCT-116 colon, in the assay on HCT-15 colon, with OVCAR-8 ovarian, with SN12C renal and in the assay with MOLT-4 leukemia was greater than 100 µM each time. Besides, the TGI in the assay on SF-295 CNS and in the assay on NCI-H226 lung was greater than 100 µM throughout.

For the compound `CC(C(=O)C(C)O[Si](c1ccccc1)(c1ccccc1)C(C)(C)C)=P(c1ccccc1)(c1ccccc1)c1ccccc1` (stereo unspecified), the TGI turned out to be 14.4 µM in the assay with UACC-62 melanoma; 10.6 µM in the assay on HCT-116 colon; 18.8 µM with HCT-15 colon; 14.2 µM in the assay on OVCAR-8 ovarian; 13.5 µM in the assay on SN12C renal; 13.5 µM in the assay with MOLT-4 leukemia. Also, the values for the TGI with SF-295 CNS and in the assay with NCI-H226 lung were 10.3 µM and 10.6 µM, respectively.

Regarding `COc1ccc(C(=O)C(CN(C)C)c2ccccc2)cc1` (stereo unspecified), the GI50 with UACC-62 melanoma was 2.81 µM; in the assay on HCT-116 colon it was 0.707 µM; in the assay with HCT-15 colon, 1.81 µM; in the assay on MDA-MB-231 breast, 5.41 µM; in the assay with OVCAR-8 ovarian, 3.46 µM; with SN12C renal, 3.56 µM. Also, the GI50 was 4.41 µM in the assay on MOLT-4 leukemia, 12.6 µM in the assay on SF-295 CNS and 2.67 µM with NCI-H226 lung. Further, the TGI in the assay on UACC-62 melanoma worked out at 8.22 µM; in the assay with HCT-116 colon, 1.95 µM; in the assay on HCT-15 colon, 4.73 µM; with MDA-MB-231 breast it was 17.4 µM; with OVCAR-8 ovarian, 12.5 µM; with SN12C renal, 12.1 µM. Also, the values for the TGI with MOLT-4 leukemia, in the assay with SF-295 CNS and in the assay on NCI-H226 lung were greater than 100 µM, 32.4 µM and 8.59 µM, respectively.

Take `CCN1CCN(c2nc(NNC(=O)c3cccc(OC)c3)nc(N3CCN(C(c4ccccc4)c4ccccc4)CC3)n2)CC1`: the GI50 with UACC-62 melanoma was 1.84 µM; with HCT-116 colon, 1.61 µM; in the assay with MDA-MB-231 breast, 1.87 µM; in the assay on SN12C renal, 1.62 µM; with MOLT-4 leukemia it was 2.03 µM; in the assay with SF-295 CNS, 1.87 µM. Moreover, the GI50 is 1.69 µM with NCI-H226 lung and 2.67 µM with DU-145 prostate. For the same compound, the TGI in the assay with UACC-62 melanoma turned out to be 3.71 µM; in the assay with HCT-116 colon, 3.22 µM; in the assay on MDA-MB-231 breast it was 3.58 µM; in the assay with SN12C renal, 3.36 µM; in the assay with MOLT-4 leukemia, 4.72 µM; with SF-295 CNS, 3.6 µM. Further, the TGI came out at 3.76 µM in the assay with NCI-H226 lung and 7.29 µM with DU-145 prostate.

Regarding `Cc1nc(=O)n2c(c1C(=O)Nc1ccc(Cl)cc1)NCCC2`, the TGI in the assay on UACC-62 melanoma, in the assay with HCT-116 colon, with HCT-15 colon, with OVCAR-8 ovarian, in the assay on SN12C renal and with MOLT-4 leukemia was greater than 100 µM in each case. Further, the TGI in the assay on SF-295 CNS and in the assay with NCI-H226 lung was greater than 100 µM in each case.

For the compound `CC(C)N(C(=O)C12C3C4C5C3C1(C(=O)N(C(C)C)C(C)C)C5C42)C(C)C` (stereo unspecified), the TGI in the assay with UACC-62 melanoma is greater than 100 µM; in the assay with HCT-116 colon, greater than 57.8 µM; with HCT-15 colon it was greater than 100 µM; in the assay with OVCAR-8 ovarian it was greater than 100 µM; in the assay with SN12C renal it was greater than 100 µM; in the assay on MOLT-4 leukemia, greater than 100 µM. The TGI with SF-295 CNS and in the assay on NCI-H226 lung was greater than 100 µM in each case.

As for `CCC[CH2][Sn]1([CH2]CCC)[O]N=Cc2ccccc2[O]1`, the GI50 with UACC-62 melanoma was 0.413 µM; in the assay on HCT-116 colon it was 1.43 µM; with HCT-15 colon, 0.808 µM; in the assay on OVCAR-8 ovarian, 0.89 µM; with SN12C renal, 1.27 µM; in the assay with MOLT-4 leukemia, 0.335 µM. The GI50 in the assay on SF-295 CNS was 0.93 µM; in the assay on NCI-H226 lung it was 1.93 µM. For the same compound, the TGI with UACC-62 melanoma came out at 1.7 µM; in the assay with HCT-116 colon, 2.73 µM; in the assay on HCT-15 colon it was 2.04 µM; with OVCAR-8 ovarian, 2.12 µM; with SN12C renal, 2.54 µM; with MOLT-4 leukemia it was 1.9 µM. The results for the TGI in the assay on SF-295 CNS and in the assay on NCI-H226 lung were 2.13 µM and 3.49 µM, respectively.

Consider `CC(=O)OC1CC2C(C)(C)C(=O)C=C[C@]2(C)C2CCC3(C)C(=CCC3[C@H](CO)C[C@H](O)C(=O)C(C)(C)O)[C@]12C` (stereo partly specified), for which the TGI is 31.6 µM with UACC-62 melanoma; greater than 100 µM in the assay on HCT-116 colon; 40.4 µM in the assay with HCT-15 colon; 33.1 µM with OVCAR-8 ovarian; 75.9 µM with SN12C renal; 89.5 µM in the assay on MOLT-4 leukemia. Besides, the figures for the TGI with SF-295 CNS and in the assay with NCI-H226 lung were 27.7 µM and 42.2 µM, respectively.

`C=CCN1C(=O)C/C(=C2/CCC(=O)N2CC=C)C1=O`: the TGI in the assay with UACC-62 melanoma, in the assay with HCT-116 colon, in the assay with HCT-15 colon, in the assay with OVCAR-8 ovarian, in the assay on SN12C renal and in the assay on MOLT-4 leukemia was greater than 100 µM each time. Besides, the TGI in the assay on SF-295 CNS and in the assay on NCI-H226 lung was greater than 100 µM throughout.

As for `O=C1CCC(=O)C(C(=O)CCC(=O)Nc2ccc(Cl)cc2)C1` (stereo unspecified), the TGI in the assay on UACC-62 melanoma, in the assay with HCT-116 colon, in the assay on HCT-15 colon, in the assay on OVCAR-8 ovarian, with SN12C renal and in the assay with MOLT-4 leukemia was greater than 100 µM in each case. The TGI in the assay on SF-295 CNS and in the assay with NCI-H226 lung was greater than 100 µM in each case.

In the case of `CCC1C(=O)OCc2c1cc1n(c2=O)Cc2ccccc2-1` (stereo unspecified), the TGI with UACC-62 melanoma, in the assay on HCT-116 colon, in the assay with HCT-15 colon, in the assay with OVCAR-8 ovarian, with SN12C renal and in the assay on MOLT-4 leukemia was greater than 100 µM each time. The TGI with SF-295 CNS and in the assay on NCI-H226 lung was greater than 100 µM in each case.

Regarding `CC(C)=CCCC1(C)C=Cc2c(ccc3c2[nH]c2cc(O)c(C)cc23)O1` (stereo unspecified), the GI50 was 9.4 µM in the assay with UACC-62 melanoma; 8.79 µM in the assay on HCT-116 colon; 4.96 µM in the assay with HCT-15 colon; 4.63 µM in the assay on SN12C renal; 4.16 µM with MOLT-4 leukemia; 7.02 µM in the assay on NCI-H226 lung. Besides, the TGI was greater than 25 µM with UACC-62 melanoma; greater than 25 µM with HCT-116 colon; 10.8 µM in the assay with HCT-15 colon; 7.49 µM with OVCAR-8 ovarian; 8.24 µM with SN12C renal; 11.2 µM in the assay on MOLT-4 leukemia. Moreover, in the assay with NCI-H226 lung, the TGI worked out at 14.6 µM.

As for `CN(C)/C=C/C(=O)c1cccc(C(=O)/C=C/N(C)C)n1`, the TGI in the assay with UACC-62 melanoma, with HCT-116 colon, with HCT-15 colon, in the assay with OVCAR-8 ovarian, in the assay on SN12C renal and in the assay on MOLT-4 leukemia was greater than 100 µM in each case. Moreover, the TGI with SF-295 CNS and in the assay with NCI-H226 lung was greater than 100 µM each time.

Take `c1cc[c]([Sn]([O]c2cccc3cccnc23)([c]2ccccc2)[c]2ccccc2)cc1`: the GI50 in the assay on UACC-62 melanoma is less than 0.01 µM; in the assay on HCT-116 colon it was less than 0.01 µM; in the assay with HCT-15 colon it was 0.0139 µM; in the assay on OVCAR-8 ovarian, 0.0184 µM; with SN12C renal it was 0.0151 µM; with MOLT-4 leukemia, 0.0102 µM. Further, the figures for the GI50 in the assay with SF-295 CNS and in the assay with NCI-H226 lung were 0.0306 µM and 0.0454 µM, respectively. The TGI worked out at 0.0188 µM with UACC-62 melanoma; 0.0198 µM with HCT-116 colon; 0.0285 µM in the assay on HCT-15 colon; 0.0336 µM with OVCAR-8 ovarian; 0.0293 µM in the assay on SN12C renal; 0.0402 µM with MOLT-4 leukemia. The TGI with SF-295 CNS is 0.0761 µM; in the assay with NCI-H226 lung it was 0.153 µM.
